This note sets out measurements from PubChem BioAssay AID2305 (GlaxoSmithKline (GSK), 2010).

The structures appear in SMILES notation.

The term IC50 denotes the concentration at which inhibition is half-maximal. A higher IC50 goes with a need for much substance.

The subject of this experiment is P. falciparum 3D7 growth, pLDH absorbance. Put plainly: P. falciparum 3D7 growth inhibition, dose response, strain 3D7 (AID 2305).

On to `O=c1c2sc(-c3ccc(Cl)cc3)cc2ncn1Cc1ccc(OCCN2CCCC2)c2ccccc12`, for which the IC50 amounted to 0.25 µM.

For `O=C(/C=C/c1ccccc1Cl)Nc1ccc(Br)c(OCCN2CCC(O)(c3ccccc3)CC2)c1`, the IC50 amounted to 0.48 µM. With `O=C(Nc1cccc(C2=NCCN2)c1)Nc1cccc(C2=NCCN2)c1` the figure was 0.42 µM; with `Brc1ccc(Nc2nc(NCC3CCCO3)c3ccccc3n2)cc1` (centres undefined), 0.58 µM.

As for `COc1ccc(CNCc2ccc(F)cc2)cc1-c1ccc(S(=O)(=O)NCCN2CCCC2)s1`, the IC50 came out at 0.71 µM. Turning to `CN(C)CCN(C)Cc1cccc(-c2ccc3c(Nc4cc(O)c(Cl)cc4F)ccnc3c2)c1`, the IC50 worked out at 0.24 µM. With `CCCCCC(=O)N1CCOC(CCN2CCC(c3ccccc3)CC2)(c2ccc(Cl)c(Cl)c2)C1` (centres undefined) the figure was 1.12 µM; with `Cc1cccc2[nH]c(-c3ccc(-c4cccc(NC(=O)C(=O)c5cccn5C)c4)cc3)nc12`, 0.98 µM; with `N/C(=N\c1ncccn1)Nc1cccc(Cc2ccccc2)n1`, 0.93 µM. Molecule `CN1CCN(C(C(=O)NCc2cc(Cl)cc(Cl)c2)c2ccc(Nc3cccc(C(F)(F)F)c3)cc2)CC1` (centres undefined) showed an IC50 of 1.12 µM.

In turn, `Cc1noc(C)c1-c1cccc(CNCc2cccc(-c3ccc(-c4nc5c(C)cccc5[nH]4)s3)c2)c1` registered an IC50 of 0.21 µM. As for `O=C(/C=C/c1ccc(Cl)c(Cl)c1)NCCCCCCN1CCN(C(=O)Nc2ccc(OC(F)F)cc2)CC1`, the IC50 came to 0.68 µM. As for `O=C(CN1CCN(C(C(=O)Nc2cc(C(F)(F)F)ccc2Cl)c2ccccc2)CC1)NC1CC1` (centres undefined), the IC50 was determined as 0.44 µM. With `CCOC(=O)CC[C@H](NC(=O)c1ccc(NS(=O)(=O)c2ccc(-c3cnc(N)[nH]c3=O)cc2)cc1)C(=O)OCC` the figure was 0.17 µM. In turn, `O=C(Nc1ccc(-c2nc3ccccc3[nH]2)cc1)c1ccc([N+](=O)[O-])s1` yielded an IC50 of 0.25 µM. Next, `CN(C)CCCOc1c(C(C)(C)C)cc(-c2cc(C(C)(C)C)c(OCCCN(C)C)c(C(C)(C)C)c2)cc1C(C)(C)C`: 0.27 µM. For `CCCNCc1ccc(-c2ccc(CN(CCOC)C(=O)c3cccc(C#N)c3)cc2)nc1`, the IC50 worked out at 1.23 µM. Molecule `COc1nc2c(CCN3CCC(NCc4ccc5c(c4)NCCO5)CC3)c(Cl)cnc2cc1F` yielded an IC50 of 0.18 µM. Next, `CN1CCN(Cc2cccc(Nc3nccc(Nc4ccc(Oc5ccccc5)cc4)n3)c2)CC1`: 0.3 µM; `COc1cc(F)c2ncc(Cl)c([C@H](O)CN3CCC(NCc4cc5c(cn4)OCCO5)CC3)c2c1`: 0.1 µM; `COc1ccc(-c2cccc(NC(=O)c3ccc(F)cc3)c2)cc1CN1CCCN(C)CC1`: 0.83 µM. With `O=C(NC1CCN(Cc2ccccc2)CC1)c1ccc(-c2nc3cc(Cl)c(F)cc3[nH]2)s1` the figure was 0.31 µM.

The molecule `NC(N)=NN=Cc1c[nH]c2ccc(-c3ccccc3)cc12` had an IC50 of 0.53 µM.

In turn, `Cc1ccc(S(=O)(=O)n2cc(-c3ccnc(N)c3)c3cc(Br)cnc32)cc1` displayed an IC50 of 0.9 µM. Next, `CS(=O)(=O)CCNCc1nc(-c2ccc3c(=O)[nH]cnc3c2)cs1`: 1.01 µM. With `C[C@@H](C(N)=O)N1CCCCC1c1ccc(OCc2cccc(F)c2)cc1` (some centres undefined) the figure was 0.99 µM.

Consider `Clc1nc(Cl)c2c(ccn2Cc2ccccc2)n1`, for which the IC50 was 0.79 µM. Molecule `CCOc1ccc(C(Cc2ccccc2)NC(=O)c2cccnc2)cc1OCC` (centres undefined) yielded an IC50 of 0.77 µM. With `NCCCNc1nc(Nc2cccc(C(N)=O)c2)c2c(=O)[nH]ccc2n1` the figure was 0.59 µM. Next, `COc1ccc2ncc(F)c(CCN3CCC(NCc4ccc5c(c4)CCO5)CC3)c2n1`: 0.68 µM; `CC(=O)c1cccc(S(=O)(=O)NCCCNc2nc3cc(C)cc(C)c3cc2C#N)c1`: 0.91 µM. With `c1ccc(CN2CCc3cc4nccc(N5CCNCC5)c4cc32)cc1` the figure was 0.4 µM; with `CC1c2cccc(O)c2CCN1CCc1ccc(Cl)c(Cl)c1` (centres undefined), 0.14 µM; with `COc1ccc(NC(=O)[C@H](Cc2ccccc2)Nc2cc(C)nc(NCCOc3ccccc3)n2)cc1`, 1.07 µM. `O=P(O)(O)Oc1c(Br)cc(Br)cc1-c1cc(Br)cc(Br)c1O` displayed an IC50 of 0.17 µM. Next, `Cn1nccc1C(=O)NCCNCc1ccc(-c2ccc(-c3nc4ccc(F)cc4[nH]3)cc2)cc1`: 0.3 µM. `COc1ccc(/C=C/c2ccc(-c3c(C)[nH]c(C)c(Cl)c3=O)cc2)cc1OC` came in with a half-inhibitory concentration (IC50) of 0.28 µM. For the molecule `Nc1ncc(OC2CCCCC2)c(N)n1`, the IC50 turned out to be 1.07 µM. With `Cc1[nH]c(C)c(-c2ccc(-c3ccc(OC(F)(F)F)cc3)cc2)c(=O)c1Br` the figure was 0.04 µM; with `CN(C)c1ccc(CN2CCC(NC(=O)c3ccc(-c4ccccc4F)s3)CC2)cc1`, 1.12 µM. In turn, `N#Cc1cccc(C(=O)Nc2ccc(-c3cccc(CN4CCC(O)CC4)c3)cc2)c1` returned an IC50 of 1 µM.

The molecule `CCCCCCCCNc1c2ccc(Cl)cc2nc2ccc(OC)cc12` showed an IC50 of 0.81 µM. `CCn1ccc2c3c(N)nc(N)nc3ccc21` registered an IC50 of 0.31 µM.

`O=C(/C=C/c1ccc(Cl)c(Cl)c1)NCCCCCN1CCC(NC(=O)c2ccc3ccccc3c2)CC1` displayed an IC50 of 1.02 µM.
